Values quoted from earlier work as cited in PubChem BioAssay AID1259410 (Chemical Carcinogenesis Research Information System (CCRIS), 2018).

Test system: rodent tumor promotion studies, tumor incidence
Test: CCRIS tumor promotion studies

CN=C(NC#N)NCCSCc1nc[nH]c1C
outcome (Carcinogen: 1,2-DIMETHYLHYDRAZINE, 540-73-8, Doses [Carcinogen]: 30 MG/KG BW 1/WK FOR 5 WK, Doses [Promoter]: 0, 500 MG/L IN DRINKING WATER BEGINNING 4 D POST LAST CARCINOGEN DOSE (STUDY DURATION: 6 MO), Route [Carcinogen]: GAVAGE, Route [Promoter]: ORAL, Species: RAT, Strain/Sex: SPRAGUE-DAWLEY/MALE): intestine: tumor

O=C(O)CN(CC(=O)O)CC(=O)O
outcome (Carcinogen: N-BIS(2-HYDROXYPROPYL)NITROSAMINE, 53609-64-6, Doses [Carcinogen]: 0.2% IN DRINKING WATER FOR 2 WK, Doses [Promoter]: 0, 1% IN DIET FOR 30 WK BEGINNING POST CARCINOGEN DOSE (STUDY DURATION: 32 WK), Route [Carcinogen]: ORAL, Route [Promoter]: ORAL, Species: RAT, Strain/Sex: WISTAR/MALE): bladder: papilloma
outcome (Carcinogen: N-BUTYL-N-(4-HYDROXYBUTYL)NITROSAMINE, 3817-11-6, Doses [Carcinogen]: 500 PPM IN DRINKING WATER FOR 4 WK, Doses [Promoter]: 0, 10000 PPM IN DIET BEGINNING POST CARCINOGEN TREATMENT AND CONTINUING FOR 28 WK (STUDY DURATION: 32 WK), Route [Carcinogen]: ORAL, Route [Promoter]: ORAL, Species: RAT, Strain/Sex: WISTAR/MALE): urinary bladder: papilloma, transitional cell carcinoma
outcome (Carcinogen: N-BUTYL-N-(4-HYDROXYBUTYL)NITROSAMINE, 3817-11-6, Doses [Carcinogen]: 500 PPM IN DRINKING WATER FOR 4 WK, Doses [Promoter]: 0, 10000 PPM IN DIET FOR 28 WK STARTING POST CARCINOGEN (STUDY DURATION: 32 WK), Route [Carcinogen]: ORAL, Route [Promoter]: ORAL, Species: RAT, Strain/Sex: WISTAR/MALE): bladder: papilloma, transitional cell carcinoma, squamous cell carcinoma
outcome (Carcinogen: N-ETHYL-N-(2-HYDROXYETHYL)NITROSAMINE, Doses [Carcinogen]: 1000 PPM IN DIET FOR 2 WK, Doses [Promoter]: 500, 10000 PPM IN DIET FOR 30 WK, Route [Carcinogen]: ORAL, Route [Promoter]: ORAL, Species: RAT, Strain/Sex: WISTAR/MALE): kidney: tubular cell tumor
outcome (Carcinogen: N-ETHYL-N-HYDROXYETHYLNITROSAMINE, 13147-25-6, Doses [Carcinogen]: 0.1% IN DIET FOR 2 WK, Doses [Promoter]: 0, 1% IN DIET BEGINNING POST CARCINOGEN TREATMENT AND CONTINUING FOR 30 WK (STUDY DURATION: 32 WK), Route [Carcinogen]: ORAL, Route [Promoter]: ORAL, Species: RAT, Strain/Sex: F344/MALE): kidney: adenoma or carcinoma
outcome (Carcinogen: N-ETHYL-N-HYDROXYETHYLNITROSAMINE, 13147-25-6, Doses [Carcinogen]: 1000 PPM IN DIET FOR 2 WK, Doses [Promoter]: 0, 500, 10000 PPM IN DIET FOR 30 WK STARTING POST CARCINOGEN (STUDY DURATION: 32 WK), Doses [Promoter]: 0, 500, 10000 PPM IN DIET FOR 30 WK STARTING POST CARCINOGEN (STUDY DURATION: 32 WK), Route [Carcinogen]: ORAL, Route [Promoter]: ORAL, Species: RAT, Strain/Sex: WISTAR/MALE): kidney: tubular cell tumor
outcome (Carcinogen: Potassium bromate (7758-01-2), Doses [Carcinogen]: 60, 125, 250 and 500 ppm in drinking water for 13 wk (study duration 52 wk), Doses [Promoter]: 1% in diet for 37 wks starting 2 wk after end of carcinogen administration (study duration 52 wk), Route [Carcinogen]: Oral, Route [Promoter]: Oral, Species: Rat, Strain/Sex: F344 (15/Group)): kidney: significant increase in multiplicity of atypical tubules and of incidenc

O=P(O)(O)O
outcome (Carcinogen: N-BUTYL-N-(4-HYDROXYBUTYL)NITROSAMINE, 3817-11-6, Doses [Carcinogen]: 0.05% IN DRINKING WATER FOR 4 WK, Doses [Promoter]: 0, 1.4% IN DIET FOR 32 WK BEGINNING POST CARCINOGEN TREATMENT (STUDY DURATION: 36 WK), Route [Carcinogen]: ORAL, Route [Promoter]: ORAL, Species: RAT, Strain/Sex: F344/MALE): urinary bladder: papilloma
outcome (Carcinogen: N-ETHYL-N-HYDROXYETHYLNITROSAMINE, 13147-25-6, Doses [Carcinogen]: 1000 PPM IN DIET FOR 2 WK, Doses [Promoter]: 0, 10% IN DIET OF UNILATERALLY NEPHRECTOMIZED RATS BEGINNING POST CARCINOGEN TREATMENT AND CONTINUING FOR 18 WK (STUDY D, Route [Carcinogen]: ORAL, Route [Promoter]: ORAL, Species: RAT, Strain/Sex: WISTAR/MALE): kidney: renal cell tumor
outcome (Carcinogen: N-ETHYL-N-HYDROXYETHYLNITROSAMINE, 13147-25-6, Doses [Carcinogen]: 1000 PPM IN DIET FOR 2 WK, Doses [Promoter]: 0, 50000 PPM IN DIET FOR 18 WK ADMINISTERED TO UNILATERALLY NEPHRECTOMIZED RATS (STUDY DURATION: 20 WK), Route [Carcinogen]: ORAL, Route [Promoter]: ORAL, Species: RAT, Strain/Sex: WISTAR/MALE): kidney: renal cell tumor

O=C([O-])/C=C/C(=O)[O-].[Fe+2]
outcome (Carcinogen: DIMETHYLHYDRAZINE, 540-73-8, Doses [Carcinogen]: 20 MG/KG 1/WK FOR 10 WK, Doses [Promoter]: 0, 3.5% IN DIET FOR 10 WK BEGINNING POST CARCINOGEN TREATMENT (STUDY DURATION: 20 WK), Route [Carcinogen]: SUBCUTANEOUS, Route [Promoter]: ORAL, Species: MOUSE, Strain/Sex: NMRI/MALE): colon/rectum: tumor
outcome (Carcinogen: DIMETHYLHYDRAZINE, 540-73-8, Doses [Carcinogen]: 20 MG/KG 1/WK FOR 10 WK, Doses [Promoter]: 0, 3.5% IN DIET FOR 10 WK CONCURRENTLY WITH CARCINOGEN TREATMENT (STUDY DURATION: 20 WK), Route [Carcinogen]: SUBCUTANEOUS, Route [Promoter]: ORAL, Species: MOUSE, Strain/Sex: NMRI/MALE): colon/rectum: tumor

CN[C@@H]1C[C@H]2O[C@@](C)([C@@H]1OC)n1c3ccccc3c3c4c(c5c6ccccc6n2c5c31)C(=O)NC4
outcome (Carcinogen: 7,12-DIMETHYLBENZ[A]ANTHRACENE, 57-97-6, Doses [Carcinogen]: 100 UG IN 100 µL ACETONE TO THE DORSAL SKIN ONCE, Doses [Promoter]: 0, 10, 50 UG IN 100 µL ACETONE TO THE DORSAL SKIN 2/WK FOR 29 WK BEGINNING 1 WK POST CARCINOGEN DOSE (STUDY DURATION: 30, Doses [Promoter]: 0, 10, 50 UG IN 100 µL ACETONE TO THE DORSAL SKIN 2/WK FOR 29 WK BEGINNING 1 WK POST CARCINOGEN DOSE (STUDY DURATION: 30, Route [Carcinogen]: DERMAL, Route [Promoter]: DERMAL, Species: MOUSE, Strain/Sex: CD-1/FEMALE): skin: tumor

CCOC(=O)C#Cc1ccccc1
outcome (Carcinogen: 7,12-DIMETHYLBENZ[A]ANTHRACENE, 57-97-6, Doses [Carcinogen]: 10 NMOL (2.5 UG IN 200 µL ACETONE), Doses [Promoter]: 5 MG 2/WK FOR 40 WK BEGINNING 2 WK POST CARCINOGEN TREATMENT (STUDY DURATION: 42 WK), Route [Carcinogen]: DERMAL, Route [Promoter]: DERMAL, Species: MOUSE, Strain/Sex: SENCAR/FEMALE): skin: tumor
outcome (Carcinogen: 7,12-DIMETHYLBENZ[A]ANTHRACENE, 57-97-6, Doses [Carcinogen]: 100 NMOL, Doses [Promoter]: 3, 5 MG 2/WK FOR 40 WK BEGINNING 2 WK POST CARCINOGEN TREATMENT (STUDY DURATION: 42 WK), Route [Carcinogen]: DERMAL, Route [Promoter]: DERMAL, Species: MOUSE, Strain/Sex: SENCAR/FEMALE): skin: tumor

C=C(C)[C@]12C[C@@H](C)[C@@]34O[C@](CCCCCCCCC)(O[C@@H]1[C@@H]3[C@@H]1O[C@]1(CO)[C@@H](O)[C@]1(O)C(=O)C(C)=C[C@H]14)O2
outcome (Carcinogen: 7,12-DIMETHYLBENZ(A)ANTHRACENE, Doses [Carcinogen]: 100 NMOL ONCE, Doses [Promoter]: 10, 20 NMOL 2/WK FOR 24 WK, Route [Carcinogen]: DERMAL, Route [Promoter]: DERMAL, Species: MOUSE, Strain/Sex: NMRI/FEMALE): integumentary system (skin): tumor (nos)

Cc1cccc(Nc2cc(Cl)nc(SCC(=O)O)n2)c1C
outcome (Carcinogen: 2-ACETYLAMINOFLUORENE, 53-96-3, Doses [Carcinogen]: 0.02% IN DIET FOR 8 WK, Doses [Promoter]: 0, 0.1% IN DIET FOR 37 WK BEGINNING 2 WK POST CARCINOGEN TREATMENT (STUDY DURATION: 39 WK), Route [Carcinogen]: ORAL, Route [Promoter]: ORAL, Species: RAT, Strain/Sex: F344/MALE): liver: adenoma
outcome (Carcinogen: DIETHYLNITROSAMINE, 55-18-5, Doses [Carcinogen]: 150 MG/KG BW ONCE, Doses [Promoter]: 0, 0.1% IN DIET FOR 37 WK BEGINNING 2 WK POST CARCINOGEN TREATMENT (STUDY DURATION: 39 WK), Route [Carcinogen]: INTRAPERITONEAL, Route [Promoter]: ORAL, Species: RAT, Strain/Sex: F344/MALE): liver: adenoma
outcome (Carcinogen: DIETHYLNITROSAMINE, 55-18-5, Doses [Carcinogen]: 150 MG/KG ONCE, Doses [Promoter]: 0.1% IN DIET BEGINNING 2 WK POST CARCINOGEN DOSE AND CONTINUING FOR 54 WK (STUDY DURATION: 56 WK), Route [Carcinogen]: INTRAPERITONEAL, Route [Promoter]: ORAL, Species: RAT, Strain/Sex: F344/MALE): liver: hepatocellular carcinoma or neoplastic nodule
outcome (Carcinogen: DIETHYLNITROSAMINE, 55-18-5, Doses [Carcinogen]: 150 MG/KG ONCE, Doses [Promoter]: 0.1% IN DIET BEGINNING 2 WK POST CARCINOGEN DOSE FOR 71 WK FOLLOWED BY CONTROL DIET FOR DURATION OF STUDY (STUDY DURATIO, Route [Carcinogen]: INTRAPERITONEAL, Route [Promoter]: ORAL, Species: RAT, Strain/Sex: F344/MALE): liver: hepatocellular carcinoma or neoplastic nodule
outcome (Carcinogen: DIETHYLNITROSAMINE, 55-18-5, Doses [Carcinogen]: 150 MG/KG ONCE, Doses [Promoter]: 0.1% IN DIET BEGINNING 11 WK POST CARCINOGEN DOSE AND CONTINUING FOR DURATION OF STUDY (STUDY DURATION: 56 WK), Route [Carcinogen]: INTRAPERITONEAL, Route [Promoter]: ORAL, Species: RAT, Strain/Sex: F344/MALE): liver: hepatocellular carcinoma or neoplastic nodule
